“Also recorded” adds a separate entry of the source. Counter-ions that a name gives are not always drawn. Like-named read-outs stand apart in the source and are kept apart here.
Tests used:
SARS-CoV-2 [1] = experiment: Viral replication of authentic SARS-CoV-2 in Calu-3 cells; format: cell-based
SARS-CoV-2 [2] = experiment: Viral replication of SARS-CoV-2 in primary human nasal epithelial; format: cell-based; conditions: 10 μM basolateral, 72 h, HNE
SARS-CoV-2 [3] = experiment: Cellular viral RNAs by qPCR at 4 h post-infection in Vero cells; format: cell-based; conditions: 0.01 MOI
[4] = test system: CHO-Spike / HEK 293T-ACE2-TMPRSS2 cells; format: cell-based; conditions: 10 μM
SARS-CoV-2 [5] = experiment: Viral replication of authentic SARS-CoV-2 in Vero cells; format: cell-based; conditions: for IC50: read-out: IC50, viral replication, Vero, supernatant
[6] = target: T1, ANO6 phospholipid scramblase (Homo sapiens, UniProt Q4KMQ2); experiment: Ionomycin-induced PS externalization; format: cell-based
T1 sequence (Q4KMQ2 1-931 isoform Q4KMQ2-2): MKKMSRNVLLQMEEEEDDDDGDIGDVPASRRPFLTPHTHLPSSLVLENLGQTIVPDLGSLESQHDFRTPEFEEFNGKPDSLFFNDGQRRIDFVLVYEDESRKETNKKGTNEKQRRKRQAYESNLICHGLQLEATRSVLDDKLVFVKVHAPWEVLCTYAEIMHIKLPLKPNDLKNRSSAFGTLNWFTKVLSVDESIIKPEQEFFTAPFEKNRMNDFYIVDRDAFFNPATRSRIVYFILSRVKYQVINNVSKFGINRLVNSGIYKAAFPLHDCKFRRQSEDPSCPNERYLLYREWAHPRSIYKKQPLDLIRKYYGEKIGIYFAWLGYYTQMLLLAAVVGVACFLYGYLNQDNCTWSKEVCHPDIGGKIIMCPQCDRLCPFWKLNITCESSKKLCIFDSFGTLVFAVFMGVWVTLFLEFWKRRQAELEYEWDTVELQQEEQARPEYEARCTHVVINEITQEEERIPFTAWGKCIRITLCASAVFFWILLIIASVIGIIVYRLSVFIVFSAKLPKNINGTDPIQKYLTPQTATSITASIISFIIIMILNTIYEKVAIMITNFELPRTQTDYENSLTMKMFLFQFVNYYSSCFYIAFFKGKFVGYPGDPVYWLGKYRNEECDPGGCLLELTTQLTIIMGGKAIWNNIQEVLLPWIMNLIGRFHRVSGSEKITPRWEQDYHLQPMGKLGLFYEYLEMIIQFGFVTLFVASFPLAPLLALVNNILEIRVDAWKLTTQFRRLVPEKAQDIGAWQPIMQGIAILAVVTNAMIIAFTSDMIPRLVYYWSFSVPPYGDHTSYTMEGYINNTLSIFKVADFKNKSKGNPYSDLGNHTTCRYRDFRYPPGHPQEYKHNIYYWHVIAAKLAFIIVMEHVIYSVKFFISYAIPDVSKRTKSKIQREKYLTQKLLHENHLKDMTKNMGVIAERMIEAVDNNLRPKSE

[7] = test system: SARS-CoV-2 Spike pseudotyped virus (SARS2-PsV); experiment: microbe, parasite or virus in culture; format: cell-based; conditions: for single-round infection of SARS2-PsV: BAPTA-AM 10 μM
[8] = test system: recombinant eGFP adenovirus (Ad-eGFP); experiment: Adenovirus; format: cell-based; conditions: 10 μM; 1 MOI; 48 h; HEK 293T
Calu-3 cells [9] = experiment: Cell viability MTS assay, Calu-3 cells; format: cell-based, human; conditions: Calu-3 and Vero cells
hANO6 = conditions: 10 μM
Calu-3 cells [10] = experiment: ATP-induced Ca2+ response in Calu-3 cells; format: cell-based, human; conditions: 10 μM, ATP 100 μM
cytosolic Ca2+ signals [11] = experiment: Ionomycin-induced cytosolic Ca2+ signals; format: cell-based
human ANO6 = target: T2, human ANO6 (Homo sapiens, UniProt Q4KMQ2); experiment: YFP fluorescence quenching-based anion channel assay, FRT-ANO6 cells; format: cell-based
T2 sequence (Q4KMQ2 1-931 isoform Q4KMQ2-2): T1 sequence (Q4KMQ2 1-931 isoform Q4KMQ2-2)

HeLa-ACE2 cells [12] = experiment: SARS2-PsV-induced PS externalization in HeLa-ACE2 cells; format: cell-based; conditions: for SARS2-PsV-induced PS externalization: 1 h; for PS externalization evoked by trypsin-pretreated SARS2-PsV: trypsin 10 μg/mL, 10 min, 37°C
[13] = test system: HEK 293T-ACE2-TMPRSS2 cells; format: cell-based; conditions: 10 μM, ATP 100 μM
human WT-CFTR = experiment: CFTR short-circuit current in FRT-CFTR cells; format: cell-based; conditions: up to a 30-μM concentration
human ANO1 = experiment: YFP quenching anion channel assay, FRT-ANO1 cells
[14] = test system: HEK 293T-ACE2-TMPRSS2 cells; experiment: SARS2-PsV-induced cytosolic Ca2+ signals; format: cell-based; conditions: pretreatment: BAPTA-AM 3 μM, camostat 10 μM, A6-001 10 μM
human ANO2 = target: T3, human ANO2 (Homo sapiens, UniProt Q9NQ90); experiment: YFP quenching anion channel assay, FRT-ANO2 cells; format: cell-based
T3 sequence (Q9NQ90 1-998): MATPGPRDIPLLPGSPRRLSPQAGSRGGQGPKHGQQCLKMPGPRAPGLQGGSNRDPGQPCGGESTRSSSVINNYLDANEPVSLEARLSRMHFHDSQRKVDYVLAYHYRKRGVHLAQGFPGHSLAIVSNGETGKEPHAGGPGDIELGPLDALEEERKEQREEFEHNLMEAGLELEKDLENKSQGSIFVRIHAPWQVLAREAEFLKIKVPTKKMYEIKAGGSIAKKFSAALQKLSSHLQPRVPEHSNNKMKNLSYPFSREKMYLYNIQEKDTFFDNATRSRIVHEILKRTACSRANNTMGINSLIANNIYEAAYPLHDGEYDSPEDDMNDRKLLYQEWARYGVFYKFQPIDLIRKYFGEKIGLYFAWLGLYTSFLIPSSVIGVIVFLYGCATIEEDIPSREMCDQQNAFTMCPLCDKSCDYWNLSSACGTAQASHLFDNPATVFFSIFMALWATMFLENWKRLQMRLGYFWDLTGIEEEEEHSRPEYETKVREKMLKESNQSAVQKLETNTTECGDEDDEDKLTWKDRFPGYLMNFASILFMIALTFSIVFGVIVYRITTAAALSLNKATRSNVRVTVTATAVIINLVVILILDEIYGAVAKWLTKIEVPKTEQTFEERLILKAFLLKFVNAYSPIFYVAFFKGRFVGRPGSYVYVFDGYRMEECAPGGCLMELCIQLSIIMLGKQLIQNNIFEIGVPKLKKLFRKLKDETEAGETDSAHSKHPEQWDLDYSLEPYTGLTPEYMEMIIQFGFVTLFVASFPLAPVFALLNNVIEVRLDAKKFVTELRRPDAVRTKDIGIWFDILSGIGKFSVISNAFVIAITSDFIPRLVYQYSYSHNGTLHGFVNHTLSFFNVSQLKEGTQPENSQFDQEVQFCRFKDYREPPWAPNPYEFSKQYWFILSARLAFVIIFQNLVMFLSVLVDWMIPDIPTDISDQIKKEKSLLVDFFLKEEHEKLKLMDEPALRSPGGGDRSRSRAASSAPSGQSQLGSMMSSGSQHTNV

ANO6 (TMEM16F) = target: T4, ANO6 (TMEM16F) (Homo sapiens, UniProt Q4KMQ2); experiment: Whole-cell patch clamp of ANO6 currents in HEK 293T-ANO6 cells; format: cell-based
T4 sequence (Q4KMQ2 1-931 isoform Q4KMQ2-2): T1 sequence (Q4KMQ2 1-931 isoform Q4KMQ2-2)

HeLa-ACE2 cells [15] = experiment: SARS2-PsV-induced multinucleated cell formation; format: cell-based; conditions: SARS2-PsV 30 min
HeLa-ACE2 cells [16] = experiment: Authentic SARS-CoV-2-induced PS externalization in HeLa-ACE2 cells; format: cell-based; conditions: 10 μM; 1 h pretreatment; 10 MOI
[17] = test system: PS scrambling induced by ionomycin; experiment: Ionomycin-induced PS scrambling, camostat control; format: cell-based; conditions: camostat 100 μM, 1 h prior; ionomycin 10 μM, 10 min
SARS-CoV-2 [18] = conditions: HeLa-ACE2 cells; ref Shang et al., 2020; cited from earlier work
[19] = test system: endogenous Cl- currents in HEK 293 cells; conditions: ref Braga et al., 2021; cited from earlier work
cytosolic Ca2+ signals [20] = conditions: ref Braga et al., 2021; cited from earlier work
[21] = 10 μM during infection and 4 h post-infection
[22] = 10 μM during the infection period alone

SMILES: O=C(NCc1ccc(F)cc1)c1cccc(Nc2ccc(-c3ccccc3)nn2)c1 [A6-001, N-(4-fluorobenzyl)-3-((6-phenylpyridazin-3-yl)amino)benzamide]
- viral reduction, qPCR (SARS-CoV-2 [1]; 10 μM, 48 h, […], Calu-3): 1/50
- ΔCt (SARS-CoV-2 [1]; 10 μM, 48 h, […], Calu-3): −13.5
- IC50 (SARS-CoV-2 [1]; Severe acute respiratory syndrome coronavirus 2, Calu-3, 48 h, read-out: IC50, viral replication): 970 nM
- average reduction in viral replications, plaque assay (SARS-CoV-2 [2]): 94%
- reduction in cellular viral RNAs (SARS-CoV-2 [3]; [21]): 98%
- ΔΔCt, cellular viral RNA (SARS-CoV-2 [3]; [21]): 5.58
- cellular viral reduction, authentic virus (SARS-CoV-2 [3]; [22]): 86%
- ΔΔCt, cellular viral RNA (SARS-CoV-2 [3]; [22]): 2.84
- membrane-fusion events ([4]; 8-h time-lapse): abolishes; also recorded: profoundly reduced
- initial lipid-mixing event and cell-cell fusion ([4]; Video S3): eliminated
- cell-cell adhesion ([4]; initial 1 h): does not affect; also recorded: not affecting
- viral reduction, plaque assay (SARS-CoV-2 [5]; 10 μM, 48 h, Vero): 1/500
- viral reduction, qPCR (SARS-CoV-2 [5]; 10 μM, 48 h, Vero): 1/150
- ΔCt (SARS-CoV-2 [5]; 10 μM, 48 h, Vero): −11.8
- IC50 (SARS-CoV-2 [5]; Severe acute respiratory syndrome coronavirus 2, Vero, 48 h): 930 nM
- virus-induced cytolysis (SARS-CoV-2 [5]; Vero, 48 h, light microscopy): dose dependently reduced
- IC50 (SARS-CoV-2 [5]): 740 nM
- IC50 [6]: 910 nM
- ionomycin-induced PS externalization ([6]; 10 μM, FRT-ANO6 cells): most effective
- scramblase IC50 relative to that for ANO6 ion channel activity ([6]; larger): approximately 10 fold
- cellular viral reduction, pseudotyped virus [7]: 78%
- single-round infection of SARS2-PsV [7]: dose dependently inhibited
- IC50 ([7]; Severe acute respiratory syndrome coronavirus 2, read-out: IC50, single-round infection): 420 nM
- replications of the non-enveloped adenovirus [8]: did not affect
- safety margin (Calu-3 cells [9]): > 100
- ionomycin-induced increase in Lact-C2-positive, PI-negative cell population (Q3) (hANO6; Jurkat-ANO6): reversed
- ionomycin-induced increase in Lact-C2-positive, PI-negative cell population (Q3) (hANO6; Jurkat): reversed
- purinergic agonist (ATP)-induced Ca2+ response (Calu-3 cells [10]): did not alter
- ionomycin-induced cytosolic Ca2+ signals (cytosolic Ca2+ signals [11]; up to 30 μM): did not affect
- IC50 (human ANO6; half-maximal inhibitory concentration [IC50], ANO6 ion channel, FRT-ANO6 cells, 10 μM ionomycin): 90 nM
- SARS2-PsV-induced PS externalization (HeLa-ACE2 cells [12]; 10 μM): strongly inhibited; also recorded: inhibit
- PS externalization evoked by trypsin-pretreated SARS2-PsV (HeLa-ACE2 cells [12]): inhibits
- purinergic agonist (ATP)-induced Ca2+ response [13]: did not alter
- CFTR currents (human WT-CFTR): did not affect
- ANO6 selectivity against ANO1 (human ANO1): 460 fold
- SARS2-PsV-induced cytosolic Ca2+ signals [14]: did not affect
- ANO6 selectivity against ANO2 (human ANO2): 90 fold
- IC50 (ANO6 (TMEM16F)): 70 nM
- multinucleated cell formation (HeLa-ACE2 cells [15]): inhibits; also recorded: significantly reduced

SMILES: CCOC(=O)c1c(NCc2ccc(SC)cc2)c2cccc(C)c2[nH]c1=O [A6-004, ethyl 8-methyl-4-((4-(methylthio)benzyl)amino)-2-oxo-1,2-dihydroquinoline-3-carboxylate]
- ionomycin-induced cytosolic Ca2+ signals (cytosolic Ca2+ signals [11]; at 30 μM): partially reduced
- IC50 on all examined ANOs (human ANO6; ANO1, ANO2 and ANO6): micromolar ranges
- SARS2-PsV-induced PS externalization (HeLa-ACE2 cells [12]; 10 μM): strongly inhibited; also recorded: inhibit

SMILES: CC(=O)OCOC(=O)CN(CC(=O)OCOC(C)=O)c1ccccc1OCCOc1ccccc1N(CC(=O)OCOC(C)=O)CC(=O)OCOC(C)=O [BAPTA-AM, reference compound]
- authentic SARS-CoV-2 virus-evoked PS scrambling (HeLa-ACE2 cells [16]): suppressed
- single-round infection of SARS2-PsV [7]: significantly reduced
- SARS2-PsV-induced PS externalization (HeLa-ACE2 cells [12]; 10 μM): nullified; also recorded: inhibits
- SARS2-PsV-induced cytosolic Ca2+ signals [14]: nullified

SMILES: CN(C)C(=O)COC(=O)Cc1ccc(OC(=O)c2ccc(NC(=N)N)cc2)cc1 [camostat, camostat mesylate, reference compound]
- PS scrambling induced by ionomycin [17]: did not affect
- SARS2-PsV-induced PS externalization (HeLa-ACE2 cells [12]; 100 μM): reduced; also recorded: inhibits
- PS externalization evoked by trypsin-pretreated SARS2-PsV (HeLa-ACE2 cells [12]): but not by trypsinized SARS2-PsV
- SARS2-PsV-induced cytosolic Ca2+ signals [14]: significantly reduced
- SARS-CoV-2 cell entry (SARS-CoV-2 [18]): inhibits

SMILES: CC(C)/N=c1\cc2n(-c3ccc(Cl)cc3)c3ccccc3nc-2cc1Nc1ccc(Cl)cc1 [clofazimine]
- endogenous Cl- currents / Cl- channel activities [19]: did not affect

SMILES: O=C(Nc1ccc([N+](=O)[O-])cc1Cl)c1cc(Cl)ccc1O [niclosamide]
- cytosolic Ca2+ signals (cytosolic Ca2+ signals [20]): reduced
- endogenous Cl- currents / Cl- channel activities [19]: partial inhibitory effect

SMILES: CC[C@@H](C(=O)[C@@H](C)[C@@H](O)[C@H](C)[C@@H]1O[C@@H]([C@@H](CC)C(=O)O)CC[C@@H]1C)[C@H]1O[C@]2(C=C[C@@H](O)[C@]3(CC[C@@](C)([C@H]4CC[C@](O)(CC)[C@H](C)O4)O3)O2)[C@H](C)C[C@@H]1C [salinomycin]
- endogenous Cl- currents / Cl- channel activities [19]: did not affect

Reference: article PMC9250890 (Cell Reports, 2022)
